Reference: article PMC11233931, “Remodeling tumor‐associated macrophage for anti‐cancer effects by rational design of irreversible inhibition of mitogen‐activated protein kinase‐activated protein kinase 2” (MedComm, 2024)

Legend:
Experiment in all cases: Eurofins kinase selectivity profile against 380 other human recombinant kinases (Table S2)
Format in all cases: biochemical
[1] = biological target: T1, 380 human recombinant protein kinases (Homo sapiens, UniProt P10398); conditions: A-Raf(h), read-out: Inhibition rate
T1 construct: purchased Eurofins (Celle Lévescault)
T1 sequence (P10398 1-606): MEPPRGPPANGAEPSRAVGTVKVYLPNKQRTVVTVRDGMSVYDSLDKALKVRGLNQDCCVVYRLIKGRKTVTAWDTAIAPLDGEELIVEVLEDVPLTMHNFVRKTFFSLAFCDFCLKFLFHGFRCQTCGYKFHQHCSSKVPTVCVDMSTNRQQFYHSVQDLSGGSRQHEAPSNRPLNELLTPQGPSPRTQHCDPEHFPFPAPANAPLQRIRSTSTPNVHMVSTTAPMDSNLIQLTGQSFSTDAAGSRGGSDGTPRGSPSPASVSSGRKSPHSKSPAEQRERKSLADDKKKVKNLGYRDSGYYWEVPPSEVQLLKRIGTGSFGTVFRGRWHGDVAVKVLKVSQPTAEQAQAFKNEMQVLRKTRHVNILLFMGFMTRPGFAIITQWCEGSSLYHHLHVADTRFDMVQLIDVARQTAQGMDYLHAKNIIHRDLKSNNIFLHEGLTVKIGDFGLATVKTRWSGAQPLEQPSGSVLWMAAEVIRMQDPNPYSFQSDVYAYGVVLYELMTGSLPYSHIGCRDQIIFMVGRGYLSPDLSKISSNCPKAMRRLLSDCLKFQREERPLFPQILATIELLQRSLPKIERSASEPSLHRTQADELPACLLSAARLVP
Outline: (§1)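 Commercial selectivity screen of the test compound against a panel of 380 human recombinant protein kinases, run by an outside contractor at several compound concentrations to check whether its potency was specific for MK2.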

[2] = biological target: T2, 380 human recombinant protein kinases (Homo sapiens, UniProt Q16832); conditions: DDR2(h), read-out: Inhibition rate
T2 construct: purchased Eurofins (Celle Lévescault)
T2 sequence (Q16832 22-855): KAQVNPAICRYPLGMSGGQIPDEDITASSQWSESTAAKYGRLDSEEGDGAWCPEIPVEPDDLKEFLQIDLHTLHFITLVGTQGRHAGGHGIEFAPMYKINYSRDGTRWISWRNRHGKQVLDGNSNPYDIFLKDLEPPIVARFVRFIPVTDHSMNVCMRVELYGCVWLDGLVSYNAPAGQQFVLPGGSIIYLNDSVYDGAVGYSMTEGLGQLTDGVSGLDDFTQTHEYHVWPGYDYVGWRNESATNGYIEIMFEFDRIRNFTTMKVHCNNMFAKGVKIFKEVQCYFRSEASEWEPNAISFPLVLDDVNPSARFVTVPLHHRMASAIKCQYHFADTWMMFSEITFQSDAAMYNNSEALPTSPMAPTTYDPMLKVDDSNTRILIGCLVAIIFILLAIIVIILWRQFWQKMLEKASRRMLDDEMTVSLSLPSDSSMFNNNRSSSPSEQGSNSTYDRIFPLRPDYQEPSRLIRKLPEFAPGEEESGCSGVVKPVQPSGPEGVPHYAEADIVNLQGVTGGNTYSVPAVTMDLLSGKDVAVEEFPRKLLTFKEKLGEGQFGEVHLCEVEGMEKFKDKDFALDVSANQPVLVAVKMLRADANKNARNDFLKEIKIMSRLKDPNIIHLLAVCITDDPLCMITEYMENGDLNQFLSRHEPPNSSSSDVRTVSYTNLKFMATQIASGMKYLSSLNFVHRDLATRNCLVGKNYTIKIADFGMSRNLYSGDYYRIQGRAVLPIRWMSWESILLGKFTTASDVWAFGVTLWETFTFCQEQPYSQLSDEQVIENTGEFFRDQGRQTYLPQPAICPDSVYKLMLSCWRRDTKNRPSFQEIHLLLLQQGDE
Outline: as §1

[3] = biological target: T3, 380 human recombinant protein kinases (Homo sapiens, UniProt Q15139); conditions: PKCμ(h), read-out: Inhibition rate
T3 construct: purchased Eurofins (Celle Lévescault)
T3 sequence (Q15139 1-912): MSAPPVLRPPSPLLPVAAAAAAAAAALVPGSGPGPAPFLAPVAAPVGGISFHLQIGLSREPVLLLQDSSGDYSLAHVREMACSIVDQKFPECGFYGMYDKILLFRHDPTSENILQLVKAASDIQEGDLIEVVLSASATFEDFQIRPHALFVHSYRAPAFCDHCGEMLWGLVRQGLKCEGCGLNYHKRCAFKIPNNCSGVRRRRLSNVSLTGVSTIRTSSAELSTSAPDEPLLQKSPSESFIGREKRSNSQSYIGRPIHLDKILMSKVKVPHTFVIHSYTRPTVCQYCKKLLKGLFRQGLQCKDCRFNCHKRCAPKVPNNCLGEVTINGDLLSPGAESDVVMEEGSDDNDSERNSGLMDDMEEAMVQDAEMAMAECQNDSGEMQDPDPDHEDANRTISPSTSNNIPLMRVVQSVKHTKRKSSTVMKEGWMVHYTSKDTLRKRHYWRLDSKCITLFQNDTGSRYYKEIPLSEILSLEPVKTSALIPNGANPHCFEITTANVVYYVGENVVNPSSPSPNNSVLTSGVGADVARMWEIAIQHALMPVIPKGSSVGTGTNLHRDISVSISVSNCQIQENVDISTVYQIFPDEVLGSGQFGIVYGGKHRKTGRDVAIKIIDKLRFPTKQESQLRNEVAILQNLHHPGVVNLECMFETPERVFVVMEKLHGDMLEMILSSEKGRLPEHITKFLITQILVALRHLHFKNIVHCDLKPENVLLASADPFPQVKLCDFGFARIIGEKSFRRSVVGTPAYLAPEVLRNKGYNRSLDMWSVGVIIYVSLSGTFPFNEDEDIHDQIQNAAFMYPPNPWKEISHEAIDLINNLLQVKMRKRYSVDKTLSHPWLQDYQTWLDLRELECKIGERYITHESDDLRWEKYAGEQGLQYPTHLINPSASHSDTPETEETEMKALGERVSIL
Outline: as §1

For `C=CC(=O)Nc1cc(-c2cc(-c3cc4c([nH]3)CCNC4=O)ccn2)ccc1OC(F)(F)F` [compound 11], the inhibition at 0.01 µM ([1]; 10 nM) was 1%, the inhibition at 0.1 µM ([1]; 100 nM) was 15% and the inhibition at 1 µM ([1]; 1000 nM) was 18%. The inhibition at 0.01 µM ([2]; 10 nM) was -7%, the inhibition at 0.1 µM ([2]; 100 nM) was -10% and the inhibition at 1 µM ([2]; 1000 nM) was -10%. It also gave an inhibition at 0.01 µM ([3]; 10 nM) of -6%, an inhibition at 0.1 µM ([3]; 100 nM) of 13% and an inhibition at 1 µM ([3]; 1000 nM) of 45%.
